Reference: patent US5770565A, “Peptides for reducing or inhibiting bone resorption” (priority 1994, dated 1998)
Where a SMILES comes first, the peptide text is derived from it. Bridges are numbered along the chain shown (N, C = ends). [ ]: non-standard residue; d: D form. Pen = CC(C)(S)[C@H](N)C(=O)O

Assays:
[1] = target: T1, α5 β1 (FnR) (Homo sapiens, UniProt P05556+P08648); assay: α5 β1 ELISA (competitive receptor binding); conditions: receptor ELISAs compared
T1 construct: Fibronectin receptor (FnR) was purified from 100 mM octyl-glucopyranoside-extracted human placenta; from tissue; host or cells: human placenta
Experimental: (§1) Peptide binding to purified human αV β5 and αV β3, which are VnR's, and to α5 β1, which is a FnR, was determined using competitive ELISA assays as described below.
Peptide binding to purified human α5 β1 (FnR) also was determined using a competitive ELISA. In these assays, Fn was immobilized to the wells and the binding of solubilized FnR in the presence of various concentrations of a peptide analogue was determined using a mouse monoclonal antibody to human β1 (clone P4C10; Gibco) and specific binding was visualized using a second antibody.
Microtiter wells were coated at RT by adding 100 μl of 2 μg/ml human Fn in TBS and incubating the plates overnight at 4° C. Following incubation, the plates were washed 3× with TBS/"TWEEN-20". RGD peptides were diluted in TBS containing 20 mM OG and 2 mM MnCl2 and 50 μl was added to wells at 10-fold serial dilutions. FnR was diluted in the same buffer and 50 μl was added to each well.
The plates were incubated for 3 hr at RT and washed with 300 μl TBS/"TWEEN-20". Bound receptor was incubated with 100 μl of the monoclonal anti-β1 antibody for 2 hr, then washed 3× with TBS/"TWEEN-20". […] The amount of bound second antibody was determined as described above.
The IC50 values for various RGD peptides were calculated by determining the concentration of a peptide that inhibited binding of Vn to αV β5 or αV β3 or of Fn to α5 β1 by 50%. […]

[2] = target: T2, αV β3 receptor (Homo sapiens, UniProt P05106+P06756); assay: αV β3 ELISA (competitive receptor binding); conditions: receptor ELISAs compared
T2 construct: The αV β3 receptor was purified from octylglucopyranoside-extracted human placenta; from tissue; host or cells: human placenta
Experimental: as §1
Peptide binding to purified αV β3 receptor was determined by using a competitive ELISA, in which αV β3 receptor was immobilized and the binding of solubilized VN, in the presence of various concentrations of peptide analogue, was detected using a monoclonal mouse IgG anti-VN antibody and a labelled anti-mouse IgG conjugate. A monoclonal anti-VN antibody can be obtained using routine methods (see, for example, Harlow and Lane, Antibodies: A laboratory manual (Cold Spring Harbor Laboratory Press 1988), which is incorporated herein by reference).
96 well microtiter plates were coated overnight at RT with 100 μl/well of αV β3 receptor (0.5 μg/ml in 1×TBS, 4 mM octylglucoside, 1 mM CaCl2). The wells were blocked with 200 μl/well of 1% BSA in 1×TBS, 1 mM CaCl2 for at least 30 min. The plates were washed 2× with 1×TBS, 1 mM CaCl2. 50 μl peptide in 1×TBS, 1 mM CaCl2, 0.05% "TWEEN 20" polyoxyethylenesorbitan monolaurate was added in 10-fold serial dilutions. 50 μl of Vn in the same buffer then was added to each well.
The plates were incubated for 3 hr at RT, then washed 3× with 1×TBS, 0.05% "TWEEN 20" polyoxyethylenesorbitan monolaurate. […] The plates were read at 490 nm and the data analyzed by four parameter fit. […]

[3] = test system: αV β3 integrin, osteoclasts; assay: series of assays of Example II for potency and selectivity (summary, FIG. 2)
Excerpt: Peptides of the RGDNTic (SEQ ID NO: 56) pharmacophore group are characterized, in general, as having increased potency, whereas the peptides of the pharmacophore RGDDV (SEQ ID NO: 1) group generally have higher receptor selectivity. […] As used herein, the term "potency" or "potent" means that a peptide of the invention is active at a relatively low concentration in the assays described in Examples II and III. A potent peptide of the invention can be identified, for example, using the assays described in Examples II and III.
Selectivity can be due, for example, to the ability of a peptide of the invention to bind to αV β3 with greater affinity than it binds to other integrins. Thus, in addition to having selectivity, for example, for osteoclast binding to a matrix, a peptide of the invention also can display receptor selectivity and, therefore, more specifically alter receptor-mediated binding to a matrix. As used herein, the term "receptor selectivity" means that a peptide of the invention can bind to one receptor with greater affinity than it can bind to another receptor.

Row | SMILES | selectivity toward α5 β1 versus αV β5 [1] | relative affinity for αV β3, α5 β1 and αV β5 [2] | potency (summary classification) [3]
1 | C[C@H](NC(=O)[C@@H]1CSSC(C)(C)[C@H](NC(=O)CN)C(=O)N[C@@H](C)C(=O)N[C@@H](C)C(=O)N[C@@H](CCCNC(=N)N)C(=O)NCC(=O)N[C@@H](CC(=O)O)C(=O)N[C@@H](CC(N)=O)C(=O)N2CCC[C@H]2C(=O)N1)C(=O)O [compound 310] (H-G[Pen]AARGDNPCA-OH; disulfide 2-10) | more selective toward α5 β1 than toward αV β5 | – | –
2 | CC(=O)N[C@@H]1C(=O)N[C@@H](Cc2ccccc2)C(=O)N[C@@H](C)C(=O)N[C@@H](CCCNC(=N)N)C(=O)NCC(=O)N[C@@H](CC(=O)O)C(=O)N[C@@H](CC(N)=O)C(=O)N2CCC[C@H]2C(=O)N[C@H](C(N)=O)CSSC1(C)C [peptide 214] (Ac-[Pen]FARGDNPC-NH2; disulfide 1-9) | – | higher affinity for αV β3 and α5 β1 than for αV β5 | particularly potent
